From ChEMBL document CHEMBL1201862, “PubChem BioAssay data set” (2004) come the findings set out here.

Assay [1] has as its target Metabotropic glutamate receptor 3 (Rattus norvegicus, UniProt P31422). The assay is described as follows: inhibitors of rat mGlu3 Galpha15 signaling – TREx293 cells, calcium flux, mGlu3 NAM project, dose response (AID 651840). The class given is functional.
The target in assay [2] is Arf-GAP with SH3 domain, ANK repeat and PH domain-containing protein 1 (Homo sapiens, UniProt Q9ULH1). Type of assay: functional.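 Also: biochemical fluorescence polarization dose–response screen measuring inhibition of ASAP1; ASAP1 GAP domain stimulating GTP hydrolysis by truncated human ARF1.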
Arf-GAP with SH3 domain, ANK repeat and PH domain-containing protein 1, sequence (Q9ULH1 whole entry, the tested form may be a part): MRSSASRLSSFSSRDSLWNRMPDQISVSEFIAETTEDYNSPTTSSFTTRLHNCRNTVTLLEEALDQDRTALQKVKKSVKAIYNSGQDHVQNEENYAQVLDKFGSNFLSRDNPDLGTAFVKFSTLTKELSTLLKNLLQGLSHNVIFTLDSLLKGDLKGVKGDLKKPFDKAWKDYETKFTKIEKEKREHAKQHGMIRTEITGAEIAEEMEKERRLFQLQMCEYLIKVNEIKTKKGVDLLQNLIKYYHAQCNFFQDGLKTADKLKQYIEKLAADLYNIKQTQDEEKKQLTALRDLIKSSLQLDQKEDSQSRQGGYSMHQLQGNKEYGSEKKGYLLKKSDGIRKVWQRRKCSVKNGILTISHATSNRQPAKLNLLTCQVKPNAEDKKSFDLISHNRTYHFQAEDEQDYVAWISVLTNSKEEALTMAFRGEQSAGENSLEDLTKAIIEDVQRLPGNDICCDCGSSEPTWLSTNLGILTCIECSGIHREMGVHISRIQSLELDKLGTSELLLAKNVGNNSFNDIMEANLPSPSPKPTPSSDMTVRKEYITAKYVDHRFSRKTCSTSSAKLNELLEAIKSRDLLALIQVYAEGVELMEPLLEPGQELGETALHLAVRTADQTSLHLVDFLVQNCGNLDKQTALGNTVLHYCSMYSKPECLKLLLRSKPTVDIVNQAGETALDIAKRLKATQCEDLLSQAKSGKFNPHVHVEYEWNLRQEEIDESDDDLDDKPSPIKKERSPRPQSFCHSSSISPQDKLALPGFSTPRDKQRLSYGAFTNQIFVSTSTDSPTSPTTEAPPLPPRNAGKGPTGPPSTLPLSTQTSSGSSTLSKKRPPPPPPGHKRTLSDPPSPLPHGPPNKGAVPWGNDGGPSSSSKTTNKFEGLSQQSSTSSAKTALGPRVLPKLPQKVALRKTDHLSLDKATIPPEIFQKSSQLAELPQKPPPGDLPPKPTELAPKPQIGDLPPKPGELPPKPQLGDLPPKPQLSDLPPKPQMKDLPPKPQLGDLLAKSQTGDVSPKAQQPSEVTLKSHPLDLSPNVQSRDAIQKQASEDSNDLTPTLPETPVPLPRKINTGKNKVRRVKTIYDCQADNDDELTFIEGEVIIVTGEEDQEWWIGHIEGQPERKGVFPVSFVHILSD
The target of assay [3] is ADP-ribosylation factor GTPase-activating protein 1 (Rattus norvegicus, UniProt Q62848). The assay is described as follows: Fluorescence polarization-based biochemical high throughput dose response screening assay to identify inhibitors of ADP-ribosylation factor GTPase activating protein 1 (ARFGAP1). Type of assay: functional.
ADP-ribosylation factor GTPase-activating protein 1, sequence (Q62848 whole entry): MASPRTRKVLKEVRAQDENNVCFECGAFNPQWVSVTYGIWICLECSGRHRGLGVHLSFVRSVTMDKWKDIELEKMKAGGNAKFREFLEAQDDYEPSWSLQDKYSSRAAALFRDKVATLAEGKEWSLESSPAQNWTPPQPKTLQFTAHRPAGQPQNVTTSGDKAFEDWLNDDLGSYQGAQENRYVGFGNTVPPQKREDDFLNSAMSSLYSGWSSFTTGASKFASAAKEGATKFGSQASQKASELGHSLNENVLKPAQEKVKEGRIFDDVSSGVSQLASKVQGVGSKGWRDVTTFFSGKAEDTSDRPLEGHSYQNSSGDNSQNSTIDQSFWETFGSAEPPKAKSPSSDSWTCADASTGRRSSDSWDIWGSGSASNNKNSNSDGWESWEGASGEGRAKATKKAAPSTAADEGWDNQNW
The next assay addresses Protein Wnt-3a (Mus musculus, UniProt P27467). The assay is described as follows: SAR analysis of small molecule antagonists of Gli-SUFU in a Wnt3a luminescent reporter assay. The class given is functional. (In general: Reporter assays use an easily measured gene product as a stand-in for the process of interest.)
The target of assay [4] is Kappa-type opioid receptor (Homo sapiens, UniProt P41145). As to the kind of experiment: kappa opioid receptor antagonism potency – cell-based, fluorescence, dose response, late-stage follow-up (AID 652032). The class given is functional.
Kappa-type opioid receptor, sequence (P41145 whole entry): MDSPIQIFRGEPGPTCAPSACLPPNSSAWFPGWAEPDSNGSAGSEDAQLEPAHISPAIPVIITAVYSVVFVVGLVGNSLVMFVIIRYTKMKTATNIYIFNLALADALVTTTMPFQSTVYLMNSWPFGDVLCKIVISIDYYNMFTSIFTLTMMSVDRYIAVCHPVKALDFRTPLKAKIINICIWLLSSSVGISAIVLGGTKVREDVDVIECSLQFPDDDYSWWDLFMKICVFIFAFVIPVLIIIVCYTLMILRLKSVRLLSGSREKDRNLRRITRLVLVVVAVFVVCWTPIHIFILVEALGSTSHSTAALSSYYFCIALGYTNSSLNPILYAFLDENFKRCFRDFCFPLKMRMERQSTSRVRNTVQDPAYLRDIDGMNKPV
Assay [5] has as its target Potassium channel subfamily K member 3 (Homo sapiens, UniProt O14649). The assay is described as follows: inhibition of human KCNK3 channel flux – CHO cells, FluxOR thallium flux, SAR follow-up (AID 652212). The class given is functional.
Assay [6] deals with Potassium channel subfamily K member 9 (Homo sapiens, UniProt Q9NPC2). The assay is described as follows: KCNK9 flux blockade, concentration-response – cell-based, FluxOR thallium flux, selectivity assay for TASK1 inhibitor project, SAR follow-up (AID 652211).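 Also: potency is for inhibitors of the channel.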 Type of assay: functional.
Potassium channel subfamily K member 9, sequence (Q9NPC2 whole entry, the tested form may be a part): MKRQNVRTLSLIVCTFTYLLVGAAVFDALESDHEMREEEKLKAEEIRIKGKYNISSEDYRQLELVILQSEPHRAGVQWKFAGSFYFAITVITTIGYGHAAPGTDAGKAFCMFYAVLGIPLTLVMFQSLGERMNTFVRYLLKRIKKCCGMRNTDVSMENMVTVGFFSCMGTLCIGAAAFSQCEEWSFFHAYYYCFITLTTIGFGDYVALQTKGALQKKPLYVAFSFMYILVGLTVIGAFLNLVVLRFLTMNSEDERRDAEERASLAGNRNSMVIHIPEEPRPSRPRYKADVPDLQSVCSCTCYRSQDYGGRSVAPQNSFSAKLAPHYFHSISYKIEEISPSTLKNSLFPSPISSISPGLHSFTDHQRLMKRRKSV
In assay [7] the target is Potassium channel subfamily K member 3 (Rattus norvegicus, UniProt O54912). As to the kind of experiment: SAR analysis for the identification of selective inhibitors of the two-pore domain potassium channel TASK1(KCNK3):Automated Electrophysiology. Type of assay: functional.
Potassium channel subfamily K member 3 (Rattus norvegicus, UniProt O54912), sequence (O54912 whole entry, the tested form may be a part): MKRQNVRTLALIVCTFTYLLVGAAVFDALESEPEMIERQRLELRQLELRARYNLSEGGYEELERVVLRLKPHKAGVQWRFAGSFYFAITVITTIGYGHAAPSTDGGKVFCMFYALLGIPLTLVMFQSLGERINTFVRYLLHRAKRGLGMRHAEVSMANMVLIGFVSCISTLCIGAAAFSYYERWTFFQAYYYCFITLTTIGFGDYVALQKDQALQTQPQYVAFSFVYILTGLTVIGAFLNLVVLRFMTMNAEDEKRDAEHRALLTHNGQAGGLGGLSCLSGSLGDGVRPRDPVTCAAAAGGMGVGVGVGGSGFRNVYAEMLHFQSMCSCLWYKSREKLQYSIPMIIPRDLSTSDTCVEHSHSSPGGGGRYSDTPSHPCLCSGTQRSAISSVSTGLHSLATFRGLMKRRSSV
Assay [8] is described as follows: Late stage assay provider results from the probe development effort to identify selective inhibitors of heat shock protein 90 (HSP90): Absorbance-based cell proliferation assay in SKBR3 cells. Conditions: SK-BR-3. Type of assay: functional.
Assay [9] is described as follows: Late stage assay provider results from the probe development effort to identify selective inhibitors of heat shock protein 90 (HSP90): Absorbance-based cell proliferation assay in MCF7 cells. The class given is functional.
The target of assay [10] is T1, Beta Lactamase (Pseudomonas aeruginosa, UniProt Q932Y6). The assay is described as follows: VIM-2 CCF2 hydrolysis inhibition, assay artifact filter – biochemical, FRET readout, CCF2 substrate, artefact control for selective VIM-2 inhibitor project, dose response (AID 1926).
T1 sequence (Q932Y6 whole entry): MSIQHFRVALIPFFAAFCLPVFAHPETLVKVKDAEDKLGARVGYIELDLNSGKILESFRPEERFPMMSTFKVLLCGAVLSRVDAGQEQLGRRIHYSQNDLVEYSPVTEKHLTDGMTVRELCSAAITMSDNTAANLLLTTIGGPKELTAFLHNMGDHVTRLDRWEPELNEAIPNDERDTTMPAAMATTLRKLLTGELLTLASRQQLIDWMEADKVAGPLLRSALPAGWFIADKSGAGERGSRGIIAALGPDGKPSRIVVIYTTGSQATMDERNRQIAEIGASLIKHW
The target of assay [11] is T2, Beta-lactamase (Pseudomonas aeruginosa, UniProt Q79MP6). The assay is described as follows: […] counterscreen for selective VIM-2 inhibitors: dose response biochemical high throughput screening assay to identify inhibitors of IMP-1 metallo-beta-lactamase. For orientation: A counterscreen serves to expose hits that act by an unwanted route or on another target.
T2 sequence (Q79MP6 whole entry): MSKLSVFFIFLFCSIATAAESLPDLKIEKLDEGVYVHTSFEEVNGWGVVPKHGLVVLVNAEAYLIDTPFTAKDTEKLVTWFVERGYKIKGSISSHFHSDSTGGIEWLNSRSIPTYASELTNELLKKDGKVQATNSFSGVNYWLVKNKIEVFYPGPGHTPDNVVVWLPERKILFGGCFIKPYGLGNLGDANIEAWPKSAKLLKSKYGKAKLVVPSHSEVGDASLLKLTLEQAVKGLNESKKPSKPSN

Assay [12] has as its target Beta-lactamase (Salmonella choleraesuis (strain SC-B67), UniProt Q5J463). The assay is described as follows: Epi-absorbance-based counterscreen for selective VIM-2 inhibitors: dose response biochemical high throughput screening assay to identify inhibitors of TEM-1 serine-beta-lactamase.
Assay [13] concerns the target T2, Beta-lactamase. As to the kind of experiment: inhibition of IMP-1 beta-lactamase activity – biochemical, epi-absorbance, selectivity assay for VIM-2 inhibitor project, dose response (AID 1920).
The target of assay [14] is T1, Beta Lactamase. As to the kind of experiment: concentration-dependent VIM-2 enzyme inhibition – biochemical, epi-absorbance readout, selective inhibitors, dose response (AID 1919).

The source made the active and inactive calls. A value given as a limit tells only on which side of the number the result lay.

Potassium channel subfamily K member 3 (Homo sapiens, UniProt O14649), sequence (O14649 whole entry): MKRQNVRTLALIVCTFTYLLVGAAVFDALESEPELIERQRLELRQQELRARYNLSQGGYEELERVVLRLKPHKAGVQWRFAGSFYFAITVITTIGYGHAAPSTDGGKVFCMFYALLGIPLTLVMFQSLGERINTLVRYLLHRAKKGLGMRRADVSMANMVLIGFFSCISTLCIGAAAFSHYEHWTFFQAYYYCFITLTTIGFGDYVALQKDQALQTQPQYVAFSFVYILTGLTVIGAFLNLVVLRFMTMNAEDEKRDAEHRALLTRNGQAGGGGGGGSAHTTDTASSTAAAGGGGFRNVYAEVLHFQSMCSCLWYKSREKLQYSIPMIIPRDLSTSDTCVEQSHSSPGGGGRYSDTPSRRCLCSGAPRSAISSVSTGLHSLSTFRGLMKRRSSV
Metabotropic glutamate receptor 3, sequence (P31422 whole entry, the tested form may be a part): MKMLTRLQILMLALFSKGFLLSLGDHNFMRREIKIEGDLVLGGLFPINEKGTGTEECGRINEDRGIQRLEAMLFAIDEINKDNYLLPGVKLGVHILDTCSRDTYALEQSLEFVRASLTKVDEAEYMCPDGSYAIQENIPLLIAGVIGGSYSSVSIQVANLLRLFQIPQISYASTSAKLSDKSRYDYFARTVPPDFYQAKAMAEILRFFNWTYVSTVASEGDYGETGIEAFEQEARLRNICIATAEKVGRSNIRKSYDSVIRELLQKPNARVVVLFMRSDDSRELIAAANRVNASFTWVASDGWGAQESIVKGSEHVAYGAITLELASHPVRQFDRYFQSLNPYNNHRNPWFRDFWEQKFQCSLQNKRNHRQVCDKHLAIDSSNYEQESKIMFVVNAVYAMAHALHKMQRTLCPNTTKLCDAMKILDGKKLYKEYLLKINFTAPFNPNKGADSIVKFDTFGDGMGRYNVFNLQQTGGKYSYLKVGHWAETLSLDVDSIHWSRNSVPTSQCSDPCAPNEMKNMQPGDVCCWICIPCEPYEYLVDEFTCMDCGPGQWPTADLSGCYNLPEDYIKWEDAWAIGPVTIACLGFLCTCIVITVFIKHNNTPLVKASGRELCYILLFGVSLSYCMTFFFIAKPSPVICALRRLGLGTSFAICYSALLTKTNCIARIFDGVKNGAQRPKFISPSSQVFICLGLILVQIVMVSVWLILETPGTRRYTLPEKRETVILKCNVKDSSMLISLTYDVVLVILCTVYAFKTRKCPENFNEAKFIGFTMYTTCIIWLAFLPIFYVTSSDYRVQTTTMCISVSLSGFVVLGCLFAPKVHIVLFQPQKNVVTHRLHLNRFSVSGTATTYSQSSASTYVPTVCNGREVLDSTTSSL
Protein Wnt-3a, sequence (P27467 whole entry): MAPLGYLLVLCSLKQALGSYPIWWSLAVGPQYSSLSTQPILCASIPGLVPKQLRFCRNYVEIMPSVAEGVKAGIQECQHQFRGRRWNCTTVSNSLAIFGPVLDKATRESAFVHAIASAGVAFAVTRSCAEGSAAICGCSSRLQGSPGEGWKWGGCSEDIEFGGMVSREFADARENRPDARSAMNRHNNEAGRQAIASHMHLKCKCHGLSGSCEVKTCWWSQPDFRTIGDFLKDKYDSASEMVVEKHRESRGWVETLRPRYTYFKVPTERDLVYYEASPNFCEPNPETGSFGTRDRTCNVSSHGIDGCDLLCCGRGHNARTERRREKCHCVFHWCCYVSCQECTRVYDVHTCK

In the case of `COc1ccc(C#Cc2ccc(C(=O)N3CC4CCC(O)C4C3)cc2)cc1` (stereo unspecified), the IC50 (as a rule, the concentration that gives 50% inhibition) in [1] stood at 3.5 µM.
On to `CCCCOc1cccc2c(=O)n(CC(=O)Nc3ccc4c(c3)OCCO4)ccc12`, for which the IC50 in assay [2] was 18.3 µM (inactive); in [3], 36.8 µM (inactive).
Take `COc1cc(OC)cc(C(=O)Nc2cc(Nc3cccc(Cl)c3)ncn2)c1`: the IC50 on Protein Wnt-3a was > 21.8 µM (inactive).
For `COC(=O)c1cc(Br)cnc1N1CCC(Nc2ccccc2)CC1`, the IC50 in assay [4] was 17.5 µM (inactive).
On to `CCOc1ccccc1NC(=O)c1cccc(NC(=O)c2ccccc2C)c1`, for which the IC50 in [5] is 0.14 µM (active); in assay [6], 4.29 µM (active).
With `CCOc1ccccc1NC(=O)c1cccc(NC(=O)c2ccc(Cl)cc2)c1`, the figures for the IC50 in [7] and in assay [5] were 7.24 µM (active) and 0.139 µM (active), respectively.
In the case of `CC(=O)c1ccc(NC(=O)c2coc(=O)c(Br)c2)cc1`, the figures for the IC50 in [8] and in assay [9] were 8.4 µM (active) and 10.7 µM (inactive), respectively.
`CCc1nnc(S)n1/N=C/c1ccc(NC(C)=O)cc1`: the IC50 at Beta Lactamase [10] is 2.08 µM (active); at Beta-lactamase [11], > 59.6 µM (inactive); on Beta-lactamase [12], > 59.6 µM (inactive); on Beta-lactamase [13], > 59.6 µM (inactive); on Beta Lactamase [14] it was 6.32 µM (active).
